# Columns and labels:
# Test in all cases: relative viability (nuclei count vs DMSO), 5 days (fraction); higher = more cells survive
# [1] = compound: CS(=O)(=O)CCNCc1ccc(-c2ccc3ncnc(Nc4ccc(OCc5cccc(F)c5)c(Cl)c4)c3c2)o1 [Lapatinib] + CC(=O)c1c(C)c2cnc(Nc3ccc(N4CCNCC4)cn3)nc2n(C2CCCC2)c1=O [Palbociclib] (partner 0.5 µM)
# Outline: (§1)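 Relative viability was taken as the ratio of nuclei in treated wells to nuclei in vehicle wells. Lung cancer cell lines in 1536-well plates received compounds by pin tool one day after seeding, either one drug alone or a fixed anchor-drug dose plus five library-drug doses (not always all listed) in √10 steps. Nuclei were counted on 4× images after 5 days of treatment, and values are medians of duplicate plates.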
# [2] = compound: CC1=NC=CC(=C1)C2=CC=C(C=C2)CC(=O)NC3=CC=C(C=C3)C4=CN=CC=C4 [Wnt-C59] + C[C@@H](Oc1cc(-c2cnn(C3CCNCC3)c2)cnc1N)c1c(Cl)ccc(F)c1Cl [Crizotinib] (partner 1 µM)
# Outline: as §1
# [3] = compound: CS(=O)(=O)CCNCc1ccc(-c2ccc3ncnc(Nc4ccc(OCc5cccc(F)c5)c(Cl)c4)c3c2)o1 [Lapatinib] + Nc1ncn([C@H]2C[C@H](O)[C@@H](CO)O2)c(=O)n1 [Decitabine] (partner 2 µM)
# Outline: as §1
# [4] = compound: CC1=NC=CC(=C1)C2=CC=C(C=C2)CC(=O)NC3=CC=C(C=C3)C4=CN=CC=C4 [Wnt-C59] + O=C(CCCCCCC(=O)Nc1ccccc1)NO [Vorinostat] (partner 1 µM)
# Outline: as §1
Cell Line,relative viability ([1]; first compound 0.02 µM),relative viability ([1]; first compound 0.2 µM),relative viability ([1]; first compound 0.6325 µM),relative viability ([1]; first compound 2 µM),relative viability ([2]; first compound 0.001 µM),relative viability ([2]; first compound 0.01 µM),relative viability ([2]; first compound 0.03162 µM),relative viability ([2]; first compound 0.1 µM),relative viability ([3]; first compound 0.02 µM),relative viability ([3]; first compound 0.2 µM),relative viability ([3]; first compound 0.6325 µM),relative viability ([3]; first compound 2 µM),relative viability ([4]; first compound 0.001 µM),relative viability ([4]; first compound 0.01 µM),relative viability ([4]; first compound 0.03162 µM),relative viability ([4]; first compound 0.1 µM),relative viability ([1]; first compound 0.06325 µM),relative viability ([3]; first compound 0.06325 µM)
NCI-H441,0.222,0.176,0.236,0.185,0.731,0.906,0.805,0.615,0.239,0.268,0.266,0.214,0.786,0.867,0.806,0.887,–,–
NCI-H460,0.116,0.149,0.149,0.118,0.996,0.961,0.878,0.689,0.429,0.542,0.435,0.461,0.688,0.711,0.743,0.648,0.168,0.488
NCI-H520,0.221,0.231,0.291,0.238,0.915,0.83,0.831,0.716,0.433,0.572,0.529,0.575,0.742,0.683,0.686,0.634,0.2,0.494
NCI-H647,0.393,0.434,0.292,0.307,1.12,1.15,1.2,0.909,0.416,0.431,0.377,0.383,0.577,0.582,0.957,0.585,0.393,0.284
NCI-H650,–,0.346,0.319,0.334,0.699,0.75,0.874,0.691,–,0.328,0.324,0.343,0.45,0.449,0.464,0.448,0.315,0.319
NCI-H661,0.374,0.325,0.356,0.3,1,1.05,0.981,0.948,0.48,0.489,0.387,0.423,0.815,0.726,0.854,0.755,0.382,0.474
NCI-H727,0.65,0.653,0.618,0.557,0.843,0.779,0.944,0.682,0.756,0.915,0.915,0.917,1.14,1.16,1.09,1.14,–,–
NCI-H838,0.225,0.201,0.238,0.178,0.839,0.826,0.902,0.916,0.475,0.495,0.484,0.44,0.709,0.704,0.786,0.708,0.193,0.453
NCI-H1355,0.411,0.402,0.361,0.268,1.01,1.05,1.06,0.966,0.352,0.333,0.307,0.353,0.639,0.529,0.601,0.596,0.29,0.33
NCI-H1437,0.281,0.305,0.322,0.294,0.996,0.867,0.988,0.89,0.603,0.56,0.53,0.569,0.838,0.806,0.829,0.8,0.297,0.527
NCI-H1650,0.315,0.379,0.3,0.299,1.08,1.02,0.896,0.89,0.362,0.418,0.371,0.503,0.69,0.638,0.606,0.516,0.314,0.509
NCI-H1651,0.547,0.483,0.478,0.514,0.856,0.855,0.854,0.864,0.466,0.605,0.633,0.484,0.557,0.6,0.597,0.63,0.456,0.608
NCI-H1666,0.63,0.674,0.65,0.633,0.989,1.05,0.902,1.1,0.599,0.709,0.641,0.58,0.964,1,0.913,1.05,0.632,0.72
NCI-H1734,–,0.31,0.332,0.303,0.642,0.618,0.773,0.66,–,0.506,0.552,0.432,0.76,0.822,0.833,0.816,0.271,0.435
NCI-H1755,0.475,0.423,0.417,0.48,0.899,0.826,0.827,0.839,0.738,0.706,0.735,0.749,0.721,0.71,0.744,0.752,0.463,0.752
NCI-H1915,–,0.489,0.496,0.522,0.771,0.852,1.02,0.912,–,0.248,0.253,0.255,0.487,0.492,0.629,0.526,0.517,0.284
NCI-H1944,0.304,0.265,0.275,0.225,1.04,0.971,1.18,1.07,0.421,0.431,0.394,0.414,0.621,0.552,0.57,0.621,0.253,0.41
NCI-H1975,0.285,0.518,0.575,0.311,0.98,0.936,1.04,0.948,0.374,0.389,0.397,0.312,0.727,0.76,0.756,0.706,0.492,0.413
NCI-H1993,0.687,0.471,0.588,0.433,0.932,0.981,0.878,1.9,0.68,0.555,0.64,0.462,0.78,0.758,0.978,0.394,–,–
NCI-H2009,0.192,0.177,0.253,0.233,0.941,1.11,1.06,1.03,0.383,0.342,0.353,0.357,0.722,0.679,0.758,0.712,0.213,0.4
NCI-H2023,–,0.324,0.242,0.264,0.701,0.65,0.686,0.594,0.22,0.224,0.235,0.223,0.757,0.499,0.742,0.487,0.266,0.229
NCI-H2085,0.485,0.474,0.445,0.338,0.929,0.803,0.953,0.823,0.579,0.512,0.521,0.477,0.758,0.717,0.811,0.756,0.462,0.528
NCI-H2087,0.238,0.177,0.251,0.246,0.737,0.884,0.792,0.778,0.26,0.251,0.228,0.234,0.905,0.336,0.788,0.764,0.161,0.164
NCI-H2126,0.38,0.346,0.348,0.319,0.994,0.998,0.987,1.01,0.609,0.593,0.548,0.44,0.841,0.62,0.788,0.76,0.349,0.52
NCI-H2170,0.376,0.271,0.277,0.136,1.19,1.09,1.46,1.11,0.503,0.477,0.429,0.182,0.803,0.795,0.834,0.809,0.313,0.459
NCI-H2347,0.385,0.456,0.378,0.386,0.673,0.598,0.612,0.653,0.573,0.642,0.605,0.599,0.649,0.644,0.572,0.717,0.45,0.514
NCI-H2405,–,–,0.505,0.518,0.833,0.806,0.812,0.779,–,–,0.709,0.616,1,1.05,1.15,1.17,0.452,0.602
NCI-H3122,0.185,0.17,0.198,0.236,0.28,0.268,0.283,0.249,0.426,0.376,0.456,0.421,1.05,1.05,0.989,0.971,0.176,0.364
PC-3 [JPC-3],–,–,0.546,0.444,0.979,1.01,1.09,0.965,–,–,0.954,0.598,0.781,0.917,0.785,1.13,0.589,0.786
PC-14,0.497,0.451,0.373,0.0812,0.999,0.857,0.818,0.848,0.271,0.246,0.223,0.193,0.815,0.96,0.886,0.723,0.526,0.277
